From US20160159814A1, “GLYCINE TRANSPORTER INHIBITOR” (TAISHO PHARMACEUTICAL CO., LTD., priority 2013, published 2016)
Where two headings read alike, the source gives them in different places.

Molecular target: T1, human type 1 glycine transporter (GlyT1) (Homo sapiens, UniProt P48067)
T1 construct: T98G cells (glioma cells) expressing human type 1 glycine transporter (GlyT1) were used; endogenous in cells; host or cells: T98G cells (human glioma cells)
T1 sequence (P48067 1-706): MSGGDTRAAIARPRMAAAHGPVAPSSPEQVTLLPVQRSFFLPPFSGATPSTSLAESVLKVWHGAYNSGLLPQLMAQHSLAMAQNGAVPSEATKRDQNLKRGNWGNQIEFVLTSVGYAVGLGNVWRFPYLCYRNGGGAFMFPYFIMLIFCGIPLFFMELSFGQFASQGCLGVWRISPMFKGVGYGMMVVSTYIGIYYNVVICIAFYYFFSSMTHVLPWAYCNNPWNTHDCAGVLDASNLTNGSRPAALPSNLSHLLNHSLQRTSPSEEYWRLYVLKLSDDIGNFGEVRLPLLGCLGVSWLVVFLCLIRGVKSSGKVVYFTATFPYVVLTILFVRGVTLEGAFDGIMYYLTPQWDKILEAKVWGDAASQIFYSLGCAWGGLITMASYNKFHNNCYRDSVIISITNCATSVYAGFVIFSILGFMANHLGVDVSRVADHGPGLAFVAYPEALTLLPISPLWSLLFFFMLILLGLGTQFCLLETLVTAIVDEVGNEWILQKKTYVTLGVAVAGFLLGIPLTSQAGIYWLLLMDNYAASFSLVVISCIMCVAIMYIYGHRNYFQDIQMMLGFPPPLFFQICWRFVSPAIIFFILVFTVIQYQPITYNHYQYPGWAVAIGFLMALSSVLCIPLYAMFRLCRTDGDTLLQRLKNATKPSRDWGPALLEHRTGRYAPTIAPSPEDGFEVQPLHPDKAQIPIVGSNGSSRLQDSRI
Assay: Glycine uptake inhibition experiment ([3H] glycine uptake in T98G cells expressing GlyT1)
Format: cell-based
Procedure: Glycine Uptake Inhibition Experiment
A glycine uptake experiment was conducted in accordance with the method published in Neuron, 8, 927-935, 1992. In the experiment, T98G cells (glioma cells) expressing human type 1 glycine transporter (GlyT1) were used. The T98G cells were seeded in a 96-well plate at 2.0×10^4 cells/well and cultured overnight in a CO2 incubator. The test substance was dissolved in a 100% DMSO solution and then dissolved in a 10 mM HEPES buffer solution (pH 7.4) containing 150 mM sodium chloride, 1 mM calcium chloride, 5 mM potassium chloride, 1 mM magnesium chloride, 10 mM glucose and 0.2% bovine serum albumin. After removing the cell culture medium, the test substance was subjected to a 10-min pretreatment. Subsequently, the test substance and [^3H] glycine (final concentration: 250 nM) were added to the cells and reaction was performed at room temperature for 15 minutes. After the end of the reaction, the extracellular fluid was aspirated with a manifold to remove excess labeled glycine present outside the cells, and then the cells were lysed with a 0.5 M aqueous sodium hydroxide solution. The glycine content in the cells was determined by measuring the radioactivity in the cell lysate with a liquid scintillation counter. Glycine uptake in the presence of 10 μM ALX5407 was defined as non-specific uptake, and the value calculated by subtracting the amount of the non-specific uptake from the total uptake in the absence of 10 μM ALX5407 was defined as specific uptake. In addition, glycine uptake inhibitory activity (IC50 value) was calculated from an inhibition curve at the concentrations of each test substance ranging from 10^−9 to 10^−5 M. It should be noted that ALX5407 is an HCl salt of N-[(3R)-3-([1,1′-biphenyl]-4-yloxy)-3-(4-fluorophenyl)propyl]-N-methylglycine.

SMILES | IC50 (glycine uptake inhibition) | IC50
O=C1N(Cc2cncc(F)c2)c2cccc(C(O)C(F)F)c2C1(F)F (single isomer, unassigned) [Compound 144, 4-(2,2-difluoro-1-hydroxyethyl)-3,3-difluoro-1-[(5-fluoropyridin-3-yl)methyl]-1,3-dihydro-2H-indol-2-one] | 240 nM | –
O=C1N(Cc2cc(Cl)ccn2)c2cccc(C(O)C(F)F)c2C1(F)F (single isomer, unassigned) [Compound 146, 1-[(4-chloropyridin-2-yl)methyl]-4-(2,2-difluoro-1-hydroxyethyl)-3,3-difluoro-1,3-dihydro-2H-indol-2-one] | 61 nM | –
O=C1N(Cc2ccnc(-n3nccn3)c2)c2cccc(C(O)C(F)F)c2C1(F)F (single isomer, unassigned) [Compound 147, 4-(2,2-difluoro-1-hydroxyethyl)-3,3-difluoro-1-{[2-(2H-1,2,3-triazol-2-yl)pyridin-4-yl]methyl}-1,3-dihydro-2H-indol-2-one] | 360 nM | –
O=C1N(Cc2cncc(-n3nccn3)c2)c2cccc(C(O)C(F)F)c2C1(F)F (single isomer, unassigned) [Compound 148, 4-(2,2-difluoro-1-hydroxyethyl)-3,3-difluoro-1-{[5-(2H-1,2,3-triazol-2-yl)pyridin-3-yl]methyl}-1,3-dihydro-2H-indol-2-one] | 39 nM | –
O=C1N(Cc2ccnc(C(F)F)c2)c2cccc(C(O)C(F)F)c2C1(F)F (single isomer, unassigned) [Compound 152, 4-(2,2-difluoro-1-hydroxyethyl)-1-{[2-(difluoromethyl)pyridin-4-yl]methyl}-3,3-difluoro-1,3-dihydro-2H-indol-2-one] | 88 nM | –
O=C1N(Cc2cc(F)ccn2)c2cccc(C(O)C(F)F)c2C1(F)F (single isomer, unassigned) [Compound 154, 4-(2,2-difluoro-1-hydroxyethyl)-3,3-difluoro-1-[(4-fluoropyridin-2-yl)methyl]-1,3-dihydro-2H-indol-2-one] | 260 nM | –
O=C1N(Cc2ccc(F)nc2)c2cccc(C(O)C(F)F)c2C1(F)F (single isomer, unassigned) [Compound 156, 4-(2,2-difluoro-1-hydroxyethyl)-3,3-difluoro-1-[(6-fluoropyridin-3-yl)methyl]-1,3-dihydro-2H-indol-2-one] | 110 nM | –
O=C1N(Cc2cc(C(F)(F)F)ccn2)c2cccc(C(O)C(F)F)c2C1(F)F (single isomer, unassigned) [Compound 159, 4-(2,2-difluoro-1-hydroxyethyl)-3,3-difluoro-1-{[4-(trifluoromethyl)pyridin-2-yl]methyl}-1,3-dihydro-2H-indol-2-one] | – | 53 nM
O=C1N(Cc2ccc(C(F)(F)F)nc2)c2cccc(C(O)C(F)F)c2C1(F)F (single isomer, unassigned) [Compound 161, 4-(2,2-difluoro-1-hydroxyethyl)-3,3-difluoro-1-{[6-(trifluoromethyl)pyridin-3-yl]methyl}-1,3-dihydro-2H-indol-2-one] | – | 90 nM
N#Cc1cncc(CN2C(=O)C(F)(F)c3c(C(O)C(F)F)cccc32)c1 (single isomer, unassigned) [Compound 164, 5-{[4-(2,2-difluoro-1-hydroxyethyl)-3,3-difluoro-2-oxo-2,3-dihydro-1H-indol-1-yl]methyl}pyridine-3-carbonitrile] | – | 460 nM
COc1cc(CN2C(=O)C(F)(F)c3c(C(O)C(F)F)cccc32)ccn1 (single isomer, unassigned) [Compound 165, 4-(2,2-difluoro-1-hydroxyethyl)-3,3-difluoro-1-[(2-methoxypyridin-4-yl)methyl]-1,3-dihydro-2H-indol-2-one] | – | 48 nM
O=C1N(Cc2ccc(C(F)(F)F)cn2)c2cccc(C(O)C(F)F)c2C1(F)F (single isomer, unassigned) [Compound 169] | – | 56 nM
O=C1N(Cc2nc3cc(F)ccc3o2)c2cccc(C(O)C(F)F)c2C1(F)F (single isomer, unassigned) [Compound 171, 4-(2,2-difluoro-1-hydroxyethyl)-3,3-difluoro-1-[(5-fluoro-1,3-benzoxazol-2-yl)methyl]-1,3-dihydro-2H-indol-2-one] | – | 170 nM
O=C1N(Cc2cncc(Cl)n2)c2cccc(C(O)C(F)F)c2C1(F)F (single isomer, unassigned) [Compound 172, 1-[(6-chloropyrazin-2-yl)methyl]-4-(2,2-difluoro-1-hydroxyethyl)-3,3-difluoro-1,3-dihydro-2H-indol-2-one] | – | 24 nM

The remaining lines, values ahead:

IC50 (glycine uptake inhibition) | IC50 | SMILES
130 nM | – | O=C1N(Cc2cccc(C(F)F)n2)c2cccc(C(O)C(F)F)c2C1(F)F (single isomer, unassigned) [Compound 153, 4-(2,2-difluoro-1-hydroxyethyl)-1-{[6-(difluoromethyl)pyridin-2-yl]methyl}-3,3-difluoro-1,3-dihydro-2H-indol-2-one]
21 nM | – | O=C1N(Cc2ccccc2)c2cccc(C(O)C(F)F)c2C1(F)F (single isomer, unassigned) [Compound 157, 1-benzyl-4-(2,2-difluoro-1-hydroxyethyl)-3,3-difluoro-1,3-dihydro-2H-indol-2-one]
16 nM | – | O=C1N(Cc2cccc(F)c2)c2cccc(C(O)C(F)F)c2C1(F)F (single isomer, unassigned) [Compound 158, 4-(2,2-difluoro-1-hydroxyethyl)-3,3-difluoro-1-(3-fluorobenzyl)-1,3-dihydro-2H-indol-2-one]
– | 350 nM | O=C1N(Cc2ccc(Cl)nc2)c2cccc(C(O)C(F)F)c2C1(F)F (single isomer, unassigned) [Compound 160, 1-[(6-chloropyridin-3-yl)methyl]-4-(2,2-difluoro-1-hydroxyethyl)-3,3-difluoro-1,3-dihydro-2H-indol-2-one]
– | 220 nM | O=C1N(Cc2ccc(Cl)cn2)c2cccc(C(O)C(F)F)c2C1(F)F (single isomer, unassigned) [Compound 162, 1-[(5-chloropyridin-2-yl)methyl]-4-(2,2-difluoro-1-hydroxyethyl)-3,3-difluoro-1,3-dihydro-2H-indol-2-one]
– | 62 nM | Cn1c(=O)c(CN2C(=O)C(F)(F)c3c(C(O)C(F)F)cccc32)nc2ccccc21 (single isomer, unassigned) [Compound 167, 3-{[4-(2,2-difluoro-1-hydroxyethyl)-3,3-difluoro-2-oxo-2,3-dihydro-1H-indol-1-yl]methyl)-1-methylquinoxalin-2(1H)-one]
– | 280 nM | O=C1N(Cc2ccc(F)cn2)c2cccc(C(O)C(F)F)c2C1(F)F (single isomer, unassigned) [Compound 168, 4-(2,2-difluoro-1-hydroxyethyl)-3,3-difluoro-1-[(5-fluoropyridin-2-yl)methyl]-1,3-dihydro-2H-indol-2-one]
– | 110 nM | Cn1c(CN2C(=O)C(F)(F)c3c(C(O)C(F)F)cccc32)nc2ccccc21 (single isomer, unassigned) [Compound 170, 4-(2,2-difluoro-1-hydroxyethyl)-3,3-difluoro-1-[(1-methyl-1H-benzimidazol-2-yl)methyl]-1,3-dihydro-2H-indol-2-one]
– | 41 nM | N#Cc1cccc(CN2C(=O)C(F)(F)c3c(C(O)C(F)F)cccc32)n1 (single isomer, unassigned) [Compound 176, 6-{[4-(2,2-difluoro-1-hydroxyethyl)-3,3-difluoro-2-oxo-2,3-dihydro-1H-indol-1-yl]methyl}pyridine-2-carbonitrile]
